Test results: patent publication US11225460B2, “Pyrrolidineamide derivatives and uses thereof” (SUNSHINE LAKE PHARMA CO., LTD., priority 2019, dated 2022)

Columns and labels:
[1] = target: T1, Human recombinant monoamine oxidase A (Homo sapiens, UniProt P21397); experiment: Inhibitory effect on the activity of monoamine oxidase A; assay type: biochemical; settings: human recombinant MAO-A, substrate p-tyramine hydrochloride
T1 construct: host or cells: Sf9 cells
T1 sequence (P21397 1-527): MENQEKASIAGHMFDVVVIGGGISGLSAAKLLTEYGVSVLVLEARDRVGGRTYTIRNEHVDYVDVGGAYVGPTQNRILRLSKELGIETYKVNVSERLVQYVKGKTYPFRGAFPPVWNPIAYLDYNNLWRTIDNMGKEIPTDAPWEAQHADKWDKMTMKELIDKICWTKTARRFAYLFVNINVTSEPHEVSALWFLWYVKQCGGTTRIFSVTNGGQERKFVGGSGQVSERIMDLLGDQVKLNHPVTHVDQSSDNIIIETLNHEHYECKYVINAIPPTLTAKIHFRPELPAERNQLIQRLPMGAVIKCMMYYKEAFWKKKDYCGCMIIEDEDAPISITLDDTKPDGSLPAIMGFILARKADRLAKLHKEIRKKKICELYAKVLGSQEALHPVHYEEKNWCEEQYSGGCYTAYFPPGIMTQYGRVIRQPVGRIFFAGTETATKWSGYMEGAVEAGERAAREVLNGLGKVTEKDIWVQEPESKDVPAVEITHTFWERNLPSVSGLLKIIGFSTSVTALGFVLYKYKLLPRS
Description: Human recombinant monoamine oxidase A expressed in Sf9 cells was used in the test system. In the experiment, firstly, the recombinant monoamine oxidase A was dissolved in the pre-configured HEPES buffer (0.8% NaCl, 0.037% KCl, 0.0135% Na2HPO4.2H2O, 0.1% Glucan, 0.5% HEPES, pH=7.0) at a concentration of 0.3 μg/μL. To each well of a 384-well plate was added 10 μL of monoamine oxidase A solution, and the test compound with different concentrations (the final concentration of DMSO was 1%) (10 gradient concentrations were 10 mM, 1 mM, 100 μM, 10 μM, 1 μM, 100 nM, 10 nM, 1 nM, 0.1 nM, 0.01 nM) were added into the wells, respectively. The standard reference compound was Clorgyline, the plate was incubated at room temperature for 15 min. Then, each well filled with […] (p-Tyramine hydrochloride, 1 mM) was incubated at room temperature for 60 min. Then 20 μL of fluorescein detection reagent was added to each well, which was fully blended and incubated at room temperature for 20 minutes to produce stable fluorescence signal. The fluorescence signal was read by fluorescein labeling instrument, and the value was expressed by relative light intensity (RLU). The inhibitory rate on enzyme activity was calculated according to the experimental results, the calculated formula: Inh %=(Max−Signal)/(Max−Min)*100, wherein Max was the detected value at the maximum concentration of the sample, Min was the detected value at the minimum concentration of the sample, and Signal was the detected value at the current concentration of the sample.
The standard curve was obtained through the series concentration by experimental test to calculate the IC50.

[2] = Pharmacokinetic evaluation after intravenous or gavage administration in dogs; assay type: in vivo, Beagle dogs; settings: for AUC(0-inf) / AUC(0-t) / Cmax / MRT inf / Tmax / clearance / half-life: beagle, dog, plasma
Description: (§1) The LC-MS/MS system comprises Agilent 1200 series vacuum degassing furnace, quaternary pumps, well-plate autosampler, thermostatted column compartment, the API4000Qtrap Triple Quadrupole Mass Spectrometer with an electrospray ionization (ESI) source. Quantitative analysis was carried out using MRM mode. The parameters for MRM transitions are in Table 2.
(§2) Analysis was carried out on waters xbridge C18 (2.1×50 mm, […] column, 0.5 μL of sample), the analytic conditions are mobile phases cosisting of water+2 mM ammonium formate+0.1% formic acid (Phase A) and methanol+2 mM ammonium formate+0.1% formic acid (Phase B). The flow rate was 0.4 mL/min. And the gradient of Mobile phase was in Table 3.
(§3) Each animal species was divided into two groups: one was administered intravenously and the other was administered intragastrically. The compounds disclosed herein were administered in form of a solution containing 5% DMSO+5% Kolliphor HS15+90% Saline. For the group of intravenous administration, the administration dose was 1 mg/kg, and vein blood samples (0.3 ml) were collected at the time points of 0.083, 0.25, 0.5, 1.0, 2.0, 4.0, 6.0, 8.0 and 24 h after drug administration, then plasma solutions were collected by centrifuging each blood sample at 3000 rpm or 4000 rpm for 10 minutes and kept at −20° C. or −70° C. For the group of intragastric administration, the administration dose was 5 mg/kg, and vein blood samples (0.3 mL) were collected at the time points of 0.25, 0.5, 1.0, 2.0, 4.0, 6.0, 8.0 and 24 h after drug administration, then plasma solutions were collected by centrifuging each blood sample at 3000 rpm or 4000 rpm for 10 minutes and kept at −20° C. or −70° C.
(§4) 20 μL of plasma was blended with 120 μl, 50 ng/ml propranolol standard water solution, then the mixture was extracted with 1.0 mL methyl tert-butyl ether (MTBE), 0.7 mL of supernatant was dried by blow with nitrogen and then dissolved again with 220 μL methanol water (methanol/water (v/v)=1/1). LC-MS/MS method was used to detect the concentration of the target compounds, and […] was used to calculate the pharmacokinetic parameters.

[3] = Pharmacokinetic evaluation after intravenous or gavage administration in monkeys; assay type: in vivo
Description: as §1, §2, §3, §4

[4] = monkey, plasma, iv, i.v group, 1 mg/kg
[5] = monkey, plasma, po, i.g group, 5 mg/kg

Compound	IC50 [1] [µM]	AUC(0-inf) ([2]; iv, i.v group, 1 mg/kg) [ng·h/mL]	AUC(0-t) ([2]; iv, i.v group, 1 mg/kg) [ng·h/mL]	Cmax ([2]; iv, i.v group, 1 mg/kg) [ng/mL]	MRT inf ([2]; iv, i.v group, 1 mg/kg) [h]	Tmax ([2]; iv, i.v group, 1 mg/kg) [h]	clearance ([2]; iv, i.v group, 1 mg/kg) [mL/min/kg]	half-life ([2]; iv, i.v group, 1 mg/kg) [h]	AUC(0-inf) ([2]; po, i.g group, 5 mg/kg) [ng·h/mL]	AUC(0-t) ([2]; po, i.g group, 5 mg/kg) [ng·h/mL]	Cmax ([2]; po, i.g group, 5 mg/kg) [ng/mL]	MRT inf ([2]; po, i.g group, 5 mg/kg) [h]	Tmax ([2]; po, i.g group, 5 mg/kg) [h]	half-life ([2]; po, i.g group, 5 mg/kg) [h]	F ([2]; i.g group, 5 mg/kg) [%]	F ([3]; i.g group, 5 mg/kg) [%]	AUC(0-inf) [3, 4] [ng·h/mL]	MRT inf [3, 4] [h]	Tmax [3, 4] [h]	AUC(0-inf) [3, 5] [ng·h/mL]	other results
NC(=O)[C@@H]1C[C@H](F)CN1Cc1ccc(OCc2cccc(F)c2)cc1 [Example 1, (2S,4S)-4-fluoro-1-(4-(3-fluorobenzyloxy)benzyl)pyrrolidine-2-formamide]	46	1500	1480	1230	2.77	0.083	11.1	5.05	4990	4930	1730	2.98	0.833	3.27	66.5	107.1	2210	2.35	0.083	11400	AUClast ([3]; i.g group, 5 mg/kg): 11300 ng·h/mL; Cmax ([3]; i.g group, 5 mg/kg): 2280 ng/mL; T1/2 ([3]; i.g group, 5 mg/kg): 2.8 h; AUClast ([3]; i.v group, 1 mg/kg): 2120 ng·h/mL; Cl ([3]; i.v group, 1 mg/kg): 7.54 mL/min/kg; Cmax ([3]; i.v group, 1 mg/kg): 924 ng/mL; T1/2 ([3]; i.v group, 1 mg/kg): 1.77 h; MRT inf [3, 5]: 4.33 h; Tmax [3, 5]: 1 h
NC(=O)[C@@H]1C[C@H](F)CN1Cc1ccc(OCc2cccc(F)c2)cc1F [Example 3, (2S,4S)-4-fluoro-1-(2-fluoro-4-(3-fluorobenzyloxy)benzyl)pyrrolidine-2-formamide]	29	979	977	1490	0.871	0.083	17	1.13	2450	2440	1380	1.44	0.5	1.09	50.1	69.1	3260	3.41	0.083	11200	AUC(0-t) [3, 4]: 3240 ng·h/mL; clearance [3, 4]: 5.12 mL/min/kg; half-life [3, 4]: 2.24 h; Cmax ([3]; monkey, plasma, iv, i.v group, 1 mg/kg, read-out: Cmax): 1610 ng/mL; AUC(0-t) [3, 5]: 11200 ng·h/mL; MRT inf [3, 5]: 5.02 h; Tmax [3, 5]: 1 h; half-life [3, 5]: 3.39 h; Cmax ([3]; monkey, plasma, po, i.g group, 5 mg/kg, read-out: Cmax): 2010 ng/mL
